From PubChem BioAssay AID1996 come the findings set out here.

In brackets after ≈: the same amount, converted by molar mass.

What is called kinetic solubility is the concentration staying in solution when a stock, usually in DMSO, is diluted into the medium.

For the data set the following is noted: buffer; pH 7.4; 200.0 µM.
`O=[N+]([O-])c1ccc(Oc2ncccn2)cc1` registered a solubility (kinetic) of 28.4 µg/mL (≈ 131 µM).
With `Cc1cc(NC(=O)OC2CCCCC2)ccc1[N+](=O)[O-]`, the kinetic solubility was 0.4 µg/mL (≈ 1.44 µM).
In the case of `COc1ccc2c(c1)CCC/C2=N\OC(=O)c1ccccc1F` it was less than 0.7 µg/mL.
In the case of `CN1CCN(c2ccccc2/C=C2/C(=O)Nc3ccccc32)CC1` it was greater than 47.9 µg/mL; in that of `Cc1cc(C)c(OCCn2ccnc2)c(C)c1`, 31.5 µg/mL (≈ 137 µM); in that of `CC(C)CCN1CCN(C2CSCCSC2)CC1CCO` (centres undefined), greater than 49.9 µg/mL.
On to `COc1ccc2c(c1)C=C(CN1CCN(C(C)C)C(CCO)C1)CO2` (centres undefined), for which the kinetic solubility was found to be 34.5 µg/mL (≈ 99.6 µM).
For `CC(=O)c1cc(F)ccc1OCC(=O)N1CCCc2ccccc21`, the kinetic solubility turned out to be 44.1 µg/mL (≈ 135 µM).
In the case of `NCCCN1CCN(c2ccccc2)CC1` it was 26.3 µg/mL (≈ 120 µM); in that of `COC(=O)c1c(C)[nH]c(C(=O)CC#N)c1C`, 27.2 µg/mL (≈ 124 µM).
Take `Cc1cc(S(=O)(=O)Nc2cccnc2)c(Cl)cc1Cl`: the kinetic solubility was 4.5 µg/mL (≈ 14.2 µM).
In the case of `CN1CCCC(OC(=O)c2cccc(Br)c2)C1.Cl` (centres undefined) it was greater than 50.2 µg/mL; in that of `O=C(NCCN1CCCCC1)Nc1ccc(F)cc1F`, greater than 42.5 µg/mL; in that of `Cc1nc(N)nc(N/N=C/c2ccccc2)n1`, greater than 34.2 µg/mL.
In turn, `CN(C)c1cc[n+](CC(=O)Nc2ccc(OC(F)F)cc2)cc1.[Cl-]` displayed a solubility (kinetic) greater than 53.7 µg/mL.
`O=C1CSC(c2cccc([N+](=O)[O-])c2)N1c1ccccc1` (centres undefined) had a solubility (kinetic) of 41.4 µg/mL (≈ 138 µM).
With `CC(NCCc1ccc(O)cc1)C(O)c1ccc(O)cc1.Cl` (centres undefined), the solubility (kinetic) is greater than 48.6 µg/mL.
In turn, `NC(=O)c1ccc(S(=O)(=O)N2CCSCC2)cc1` showed a kinetic solubility of 37.9 µg/mL (≈ 132 µM).
In the case of `CCN1CCN(CC(=O)c2ccc(C)cc2)CC1` it was 32.4 µg/mL (≈ 132 µM); in that of `CC(=O)Nc1ccc(NC(=O)c2cc(-n3cnnc3)ccc2Cl)cc1`, greater than 53.4 µg/mL; in that of `O=C(c1ccccc1)c1c[nH]c2ccccc12`, 1.9 µg/mL (≈ 8.59 µM).
In turn, `Cc1ccc(C)n1CCN1CCN(C(=O)CC#N)CC1` yielded a kinetic solubility greater than 41.2 µg/mL.
In the case of `CC(=O)c1cc(N2CCOCC2)ccc1[N+](=O)[O-]` it was greater than 37.5 µg/mL; in that of `O=C(NCc1ccccn1)Nc1ccc(Cl)cc1Cl`, 9.2 µg/mL (≈ 31.1 µM).
`COC(=O)CNC(=O)C1CC(=O)N(CCc2ccc(F)cc2)C1` (centres undefined) registered a solubility (kinetic) greater than 48.4 µg/mL.
In the case of `O=C(c1ccc2oc(CCc3ccccc3)nc2c1)N1CC[C@H](O)C1` it was 41.1 µg/mL (≈ 122 µM); in that of `CNC(=S)SCCOc1ccccc1`, 17.5 µg/mL (≈ 77 µM).
Compound `CCOC(=O)c1cc(NC(=O)c2cccnc2)ccc1N1CCOCC1` registered a kinetic solubility greater than 53.3 µg/mL.
In turn, `CC(=O)Nc1ccc(SCC(=O)c2cc(C)ccc2C)cc1` came in with a kinetic solubility of 28 µg/mL (≈ 89.3 µM).
In the case of `O=C(Nc1cccc(F)c1)Nc1cnccn1`, the kinetic solubility came out at 6.1 µg/mL (≈ 26.3 µM).
In the case of `O=C(NC1CCCC1)c1cc(COc2ccc3ncccc3c2)on1` it was 21.2 µg/mL (≈ 62.8 µM); in that of `Cc1cccc(Nc2nc(N3CCOCC3)nc(N3CCOCC3)n2)c1`, 34.9 µg/mL (≈ 97.9 µM).
`CN(C)c1ccc2c3c(ccc(N(C)C)c13)C(=O)OC2` yielded a kinetic solubility of 36.6 µg/mL (≈ 135 µM).
Compound `Cc1nc2c(C)cccn2c(=O)c1NC(=O)c1ccco1` showed a kinetic solubility greater than 42.5 µg/mL.
As to `CC(=O)c1cccc(OCC(=O)N(C)CC(=O)NCc2ccco2)c1`, the solubility (kinetic) is greater than 51.7 µg/mL.
As for `CCS(=O)(=O)c1ncc(Cl)c(C(=O)Nc2ccccc2OC)n1`, the solubility (kinetic) turned out to be 0.3 µg/mL (≈ 0.843 µM).
`O=C(O)c1cc([N+](=O)[O-])ccc1NCc1cccnc1`: the kinetic solubility was greater than 41 µg/mL.
Turning to `CC(=O)N1CCN(C(=O)COC(=O)/C=C/c2ccc(C(F)(F)F)cc2)CC1`, the solubility (kinetic) is greater than 57.7 µg/mL.
As for `CCCCn1c(=O)c(C(=O)Nc2ccc(C)cn2)c(O)c2ccccc21`, the solubility (kinetic) was less than 0.3 µg/mL.
`COc1ccc(NC(C)C(=O)Nc2cccc(S(=O)(=O)N3CCOCC3)c2)cc1OC` (centres undefined) had a solubility (kinetic) greater than 67.4 µg/mL.
Turning to `O=C(CCCCC(=O)Nc1ccccc1)Nc1ccccc1`, the kinetic solubility amounted to 3.1 µg/mL (≈ 10.5 µM).
`O=C(Cc1cccc2ccccc12)NCC(=O)Nc1ccccc1F` came in with a solubility (kinetic) of 10.6 µg/mL (≈ 31.5 µM).
In the case of `C/C(=N\O)c1ccc2c(c1)OCCO2` it was greater than 29 µg/mL.
`Cc1cc([N+](=O)[O-])ccc1NC(=O)CCC(=O)N1CCCCC1` came in with a kinetic solubility greater than 47.9 µg/mL.
Compound `O=C(Nc1cc([N+](=O)[O-])ccc1O)c1cccc([N+](=O)[O-])c1` yielded a kinetic solubility of 37.1 µg/mL (≈ 122 µM).
In the case of `O=C(COC(=O)c1c(Cl)cccc1Cl)NCC1CCCO1` (centres undefined) it was greater than 49.8 µg/mL.
`CCN(CC)C(=O)c1cc(-c2ccc3c(c2)OCO3)on1` yielded a solubility (kinetic) of 20.8 µg/mL (≈ 72.1 µM).
On to `Cc1ccc(OCCn2cnc(Cl)c2Cl)cc1`, for which the kinetic solubility was found to be 31.7 µg/mL (≈ 117 µM).
Compound `Cc1cc(C)cc(CC2CC(=O)N(c3cc(C)ccc3C)C2=O)c1` (centres undefined) returned a solubility (kinetic) of 17.5 µg/mL (≈ 54.4 µM).
Consider `COc1cc(C(=O)NC(=S)N(CCC#N)Cc2cccnc2)cc(OC)c1OC`, for which the kinetic solubility stood at 59.3 µg/mL (≈ 143 µM).
As for `COc1ccc(CCNC(=O)c2cc(C3CC3)on2)cc1OC`, the solubility (kinetic) is greater than 47.5 µg/mL.
For the compound `CC(NC(=O)N1CCOCC1)c1ccccc1` (centres undefined), the kinetic solubility is greater than 35.1 µg/mL.
`Cc1ccccc1NC(=O)CCN1CCN(CCO)CC1` had a solubility (kinetic) of 42.4 µg/mL (≈ 146 µM).
`CN(C)c1ccc(C=NCC2COc3ccccc3O2)cc1` (centres undefined) returned a kinetic solubility greater than 44.5 µg/mL.
`O=C(c1ccco1)N1CCN(CCOc2ccccc2)CC1` showed a kinetic solubility of 42.7 µg/mL (≈ 142 µM).
Consider `COCC1CCN(Cc2nc(COc3ccccc3)no2)C1` (centres undefined), for which the solubility (kinetic) was 37.2 µg/mL (≈ 123 µM).
`COc1ccc(OC)c(NC(=O)COC(=O)C2CCC2)c1` registered a kinetic solubility greater than 44 µg/mL.
In the case of `CN(Cc1ccccc1)S(=O)(=O)c1cc2c3c(c1)CCN3C(=O)CC2` it was 3.6 µg/mL (≈ 10.1 µM).
In turn, `O=C(O)C1CC1C(=O)Nc1nc2c(Cl)cccc2s1` (centres undefined) displayed a solubility (kinetic) greater than 44.5 µg/mL.
As to `C=C1SC(Nc2c(C)cccc2C)=NC12CCCCC2`, the solubility (kinetic) is less than 0.3 µg/mL.
Regarding `CC(=O)N1CCCc2cc(S(=O)(=O)N3CCCC3)ccc21`, the solubility (kinetic) was greater than 46.3 µg/mL.
In the case of `COc1ccc(NC(=O)COC(=O)C(NC(=O)c2ccc(C)cc2)C(C)C)cn1` (centres undefined) it was 57.9 µg/mL (≈ 145 µM).
Turning to `O=C(/C=C/c1ccc(F)cc1)NC(=S)Nc1ccccc1O`, the solubility (kinetic) is 1.8 µg/mL (≈ 5.69 µM).
Compound `COc1ccc(CNC(=O)CSc2nc(SC)ns2)cc1` had a kinetic solubility of 26.4 µg/mL (≈ 77.3 µM).
As for `Cc1c(NS(=O)(=O)c2cc(C(=O)N(C)Cc3ccccc3)ccc2Cl)c(=O)n(-c2ccccc2)n1C`, the kinetic solubility was greater than 78.8 µg/mL.
In the case of `COCCN1Cc2cccc(C(=O)NCCc3ccccc3)c2C1=O`, the kinetic solubility turned out to be 41.5 µg/mL (≈ 123 µM).
In the case of `CCOc1ccc(NC(=O)CCC(=O)c2ccc(OC)cc2)cc1` it was 3 µg/mL (≈ 9.16 µM).
Turning to `O=C(O)CN1C(=O)C(=O)N(Cc2ccc(Cl)c(Cl)c2)C1=O`, the solubility (kinetic) was found to be 46.1 µg/mL (≈ 139 µM).
For `COc1ccc(CCNC(=O)CSc2ccccn2)cc1OC`, the kinetic solubility is greater than 49.9 µg/mL.
As to `COC(=O)c1c(N)sc2c1CC(C)(C)OC2`, the solubility (kinetic) was greater than 36.2 µg/mL.
In the case of `Nc1cccc(Oc2cnccn2)c1` it was greater than 28.1 µg/mL; in that of `Cc1ccc(NC(=O)Cn2cc(C(=O)C3CC3)c3ccccc32)cc1`, less than 0.4 µg/mL.
For the compound `O=C(Nc1cccnc1)c1cccc(S(=O)(=O)N2CCCC2)c1`, the kinetic solubility is greater than 49.7 µg/mL.
As to `O=C1CCCc2c1nc(-c1ccc(F)cc1)n2O`, the solubility (kinetic) was greater than 36.9 µg/mL.
In the case of `O=C(NN1CCOCC1)c1ccco1` it was greater than 29.4 µg/mL.
For the compound `COc1cccc(OCC(=O)N(C)Cc2nc(-c3ccccc3)no2)c1`, the kinetic solubility was 36.6 µg/mL (≈ 104 µM).
As for `Cc1cc(C)cc(NCc2ccncc2)c1`, the kinetic solubility is 24.8 µg/mL (≈ 117 µM).
Consider `Cc1cc(C(=O)CSc2nc(N)cc(=O)[nH]2)ccc1F`, for which the solubility (kinetic) was 32.5 µg/mL (≈ 111 µM).
In the case of `Cc1ccc(CNc2nc(C)c(C(=O)N(C)C)s2)cc1` it was greater than 43.4 µg/mL; in that of `O=C(OCC(=O)N1CCCC1)c1cc(Cl)ccc1[N+](=O)[O-]`, greater than 46.9 µg/mL; in that of `O=S(=O)(NC(=S)c1ccccc1)c1ccc(F)cc1`, greater than 44.3 µg/mL.
With `CCCC(=O)Nc1c(-c2cccc(C)c2)c(=O)c2ccccc2n1C`, the kinetic solubility was determined as 13.1 µg/mL (≈ 39.2 µM).
On to `O=c1[nH]c(=S)[nH]c(O)c1/C=C1/C=c2ccccc2=N1`, for which the solubility (kinetic) was 1.8 µg/mL (≈ 6.63 µM).
As for `Cc1cc(Cl)ccc1NS(=O)(=O)c1c(C)[nH]c(=O)[nH]c1=O`, the solubility (kinetic) is greater than 49.5 µg/mL.
Compound `CSc1ncccc1C(=O)NC(C)CCc1ccccc1` (centres undefined) showed a kinetic solubility of 11.9 µg/mL (≈ 39.6 µM).
Compound `CCC(C)Nc1nc(N)c([N+](=O)[O-])c(NCc2ccccc2)n1` (centres undefined) yielded a kinetic solubility of 3.6 µg/mL (≈ 11.4 µM).
`CC1CCCC(C)N1C(=O)COC(=O)c1cccs1` (centres undefined) displayed a solubility (kinetic) greater than 42.2 µg/mL.
`CCOc1c(C)cc(S(=O)(=O)NCc2cccnc2)c(C)c1C` showed a solubility (kinetic) of 45.2 µg/mL (≈ 135 µM).
For `COc1ccc(N2CCN(C(=O)/C=C/c3ccco3)CC2)cc1`, the solubility (kinetic) is 10.5 µg/mL (≈ 33.6 µM).
In turn, `N#CCCN(C(=O)COC(=O)CSc1ccc(Cl)cc1)c1ccccc1` registered a kinetic solubility of 56.9 µg/mL (≈ 146 µM).
Take `COc1ccc(Nc2nc(N)c([N+](=O)[O-])c(NC3CCCCC3)n2)cc1`: the solubility (kinetic) amounted to 0.2 µg/mL (≈ 0.558 µM).
In the case of `Cc1cccc(-c2nc3sc(C)cc3c(=O)o2)c1` it was less than 0.6 µg/mL.
`O=C1CN(C(=O)COC(=O)CCc2ccccc2O)c2ccccc2N1` came in with a solubility (kinetic) greater than 53.2 µg/mL.
`O=c1cnnc(Nc2ccccc2F)[nH]1` returned a kinetic solubility greater than 30.9 µg/mL.
In the case of `Cc1ccc(NC(=O)C(=O)NCc2ccncc2)cc1` it was 29.6 µg/mL (≈ 110 µM); in that of `COc1ccc(-c2ncncc2-c2ccc(OC)c(OC)c2)c(O)c1`, greater than 50.8 µg/mL.
`C=CCn1c(SCC(=O)N(C)CC(=O)Nc2ccc(C)cc2)nnc1-c1ccncc1` returned a solubility (kinetic) greater than 65.5 µg/mL.
On to `Cc1ccc(S(=O)(=O)NC(=O)Nc2ccccc2)cc1`, for which the solubility (kinetic) was found to be 41.8 µg/mL (≈ 144 µM).
Take `O=C(Nc1ccc(F)c(Cl)c1)Nc1csc2ccccc12`: the solubility (kinetic) was found to be 1 µg/mL (≈ 3.12 µM).
For `Cc1ccc(NS(=O)(=O)c2ccc3c(c2)oc(=O)n3C)cc1C`, the kinetic solubility was less than 0.4 µg/mL.
In the case of `CN(c1ccc(F)cc1)S(=O)(=O)c1ccc(Cl)c(C(=O)NCc2ccco2)c1` it was 34.9 µg/mL (≈ 82.5 µM); in that of `O=[N+]([O-])c1ccccc1-c1ccc(C(=S)N2CCCCC2)o1`, 11.8 µg/mL (≈ 37.3 µM); in that of `COc1ccc(C(=O)Nc2ccccc2C(=O)NCc2ccco2)cc1`, 2.1 µg/mL (≈ 5.99 µM).
Regarding `Cc1ccc(C(=O)OCC(=O)N(C)c2ccccc2)cc1C`, the solubility (kinetic) came to 41.4 µg/mL (≈ 139 µM).
